Numbering of substitutions follows the chain as printed.
Key:
AT1 N295A receptor = target: T1, AT1 N295A receptor (Rattus norvegicus, UniProt P25095, N295A); assay: Competition binding study, 125I-[Sar1,Ile8]Ang II, AT1 N295A receptor; conditions: competition with 125I-[Sar1,Ile8]Ang II, n = 3, mean ± standard error, read-out: Binding affinity (Kd)
T1 construct: expressed in transfected cells; host or cells: COS7
T1 sequence (P25095 1-359 N295A): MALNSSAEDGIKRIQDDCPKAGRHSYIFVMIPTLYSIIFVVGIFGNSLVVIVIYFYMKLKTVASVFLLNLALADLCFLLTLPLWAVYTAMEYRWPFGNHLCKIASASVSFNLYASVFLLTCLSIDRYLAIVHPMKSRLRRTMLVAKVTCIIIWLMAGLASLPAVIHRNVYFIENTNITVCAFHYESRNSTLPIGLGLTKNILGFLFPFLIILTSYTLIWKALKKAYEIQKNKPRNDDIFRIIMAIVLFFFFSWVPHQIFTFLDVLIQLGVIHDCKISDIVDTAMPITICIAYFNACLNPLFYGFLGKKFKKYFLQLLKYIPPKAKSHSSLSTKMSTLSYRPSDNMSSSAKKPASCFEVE
From the text: (§1) We mutated four amino acids in transmembrane (TM) III, VI, and VII in the AT1 receptor (L112A, Q257A, Y292A, and N295A receptors). We determined the mutation sites of the AT1 receptor according to ARB, which produced olmesartan derivatives with different interactions and functions toward the AT1 receptor, as previously reported by Zhang et al., since the additional 4-hydroxybenzyl groups of R781253 and R794847 were predicted to extend to a sub-pocket on the bottom of the AT1 receptor ligand-binding pocket consisting of Leu^112 and Gln^257. In addition, since the biased ligand TRV027 induced changes near the NPxxY motif in TM domain 7 that are related to receptor activation, Tyr^292 and Asn^295 in the AT1 receptor were mutated.
The synthetic rat AT1 receptor gene, which was cloned in the shuttle expression vector pMT-2, was used for expression and mutagenesis, as described previously. COS7 cells (No. CRL-1651, ATCC, Manassas, VA, USA) were cultured in 10% fetal bovine serum (FBS) and penicillin- and streptomycin-supplemented Dulbecco’s modified Eagle’s essential medium (PS-DMEM) in 5% CO2 at 37 °C. In the experiments, cells were grown without a cell-growth supplement. To express the AT1 receptor protein, 10 µg of purified plasmid DNA per 10^7 cells was used in the transfection. Wild-type and mutated AT1 receptors were transiently transfected into cells using Lipofectamine 2000 liposomal reagent (Roche Applied Science, Penzberg, Germany). Cells were plated and grown and were 70–90% confluent at the time of transfection. We incubated plasmid DNA (10 µg)–lipid (10 µL) complexes for 5 min at room temperature and added and incubated the complexes with cells for 24 h. We then analyzed the parameters in transfected cells. Cell viability was >95% according to trypan blue exclusion analysis in the control experiments. Transfected cells that had been cultured for 48–72 h were harvested. Cell membranes were prepared using the nitrogen Parr bomb disruption or freeze–thaw methods.
The Kd (nM) values of receptor binding were determined with ^125I-[Sar^1, Ile^8]AngII-binding experiments under equilibrium conditions. Binding kinetics were determined following the methods described in the literature. We carried out binding by using ^125I-[Sar^1, Ile^8] AngII (2200 Ci/mmol) and an increasing concentration (10^−11–10^−5 M) of each unlabeled compound. Nonspecific binding of ^125I-[Sar^1, Ile^8] Ang II was determined in the presence of a high concentration (10^−6 M) of unlabeled [Sar^1, Ile^8]. Next, the incubation mixture was separated by vacuum filtration through Whatman GF/C glass filters (Disposable Filter Funnels Grade GF/C, GE Healthcare), and presoaked with 0.1% polyethylenimine. The filter was washed with 3 mL of ice-cold stop buffer (25 mM Tris–HCl, pH 7.4, 1 mM MgCl2). The radioactivity trapped on the filters was quantified using an automatic γ-counter. The percentage (%) of specific binding of ^125I-[Sar^1, Ile^8]Ang II was calculated using the following formula: 100 × (% total binding of ^125I-[Sar^1, Ile^8]Ang II—nonspecific binding of ^125I-[Sar^1, Ile^8]Ang II)/(% total binding of ^125I-[Sar^1, Ile^8]Ang II).

AT1 L112A receptor = target: T2, AT1 L112A receptor (Rattus norvegicus, UniProt P25095, L112A); assay: Competition binding study, 125I-[Sar1,Ile8]Ang II, AT1 L112A receptor; conditions: competition with 125I-[Sar1,Ile8]Ang II, n = 3, mean ± standard error, read-out: Binding affinity (Kd)
T2 construct: expressed in transfected cells; host or cells: COS7
T2 sequence (P25095 1-359 L112A): T1 sequence (P25095 1-359 N295A) with L112A, A295N
From the text: as §1
The synthetic rat AT1 receptor gene, which was cloned in the shuttle expression vector pMT-2, was used for expression and mutagenesis, as described previously. COS7 cells (No. CRL-1651, ATCC, Manassas, VA, USA) were cultured in 10% fetal bovine serum (FBS) and penicillin- and streptomycin-supplemented Dulbecco’s modified Eagle’s essential medium (PS-DMEM) in 5% CO2 at 37 °C. In the experiments, cells were grown without a cell-growth supplement. To express the AT1 receptor protein, 10 µg of purified plasmid DNA per 10^7 cells was used in the transfection. […] We then analyzed the parameters in transfected cells. […]
The Kd (nM) values of receptor binding were determined with ^125I-[Sar^1, Ile^8]AngII-binding experiments under equilibrium conditions. Binding kinetics were determined following the methods described in the literature. […] Ang II was determined in the presence of a high concentration (10^−6 M) of unlabeled [Sar^1, Ile^8]. […] The radioactivity trapped on the filters was quantified using an automatic γ-counter. The percentage (%) of specific binding of ^125I-[Sar^1, Ile^8]Ang II was calculated using the following formula: 100 × (% total binding of ^125I-[Sar^1, Ile^8]Ang II—nonspecific binding of ^125I-[Sar^1, Ile^8]Ang II)/(% total binding of ^125I-[Sar^1, Ile^8]Ang II).

Kd (AT1 N295A receptor)	Kd (AT1 L112A receptor)	Structure (SMILES)
334 ± 105 nM		CCCc1nc(C(C)(C)O)c(C(=O)O)n1Cc1ccc(-c2ccccc2-c2nnn[nH]2)cc1 [Olmesartan, olmesartan]
69 ± 8 nM	37 ± 12 nM	CCCc1nc(C(C)(C)O)c(C(N)=O)n1Cc1ccc(-c2ccccc2-c2nnn[nH]2)cc1 [R239470]
> 10000 nM	23 ± 7 nM	CCCc1nc(C(C)(C)O)c(C(=O)O)n1Cc1ccc(-c2cc(Cc3ccc(O)cc3)ccc2-c2nnn[nH]2)cc1 [R781253]
> 10000 nM		CCCc1nc(C(C)(C)O)c(C(N)=O)n1Cc1ccc(-c2cc(Cc3ccc(O)cc3)ccc2-c2nnn[nH]2)cc1 [R794847]

Reference: article PMC10216478, “Development of a Non-Peptide Angiotensin II Type 1 Receptor Ligand by Structural Modification of Olmesartan as a Biased Agonist” (Biomedicines, 2023)
